# Measurements from ChEMBL document CHEMBL4038282 (Eur J Med Chem, 2017).
# The source made the active and inactive calls. The rule behind the calls is not given here.
# Experiments:
# Mus musculus [1] = experiment: Toxicity in nu/nu mouse assessed as hematological changes at 50 mg/kg, po administered once daily for 32 days in presence of doxorubicin; format: organism-based; conditions: in vivo, 768 h
# MDA-MB-231 [2] = experiment: Antiproliferative activity against human MDA-MB-231 cells up to 72 hrs by MTT assay; format: functional, cell-based; conditions: MDA-MB-231, 72 h
# MCF7 [3] = experiment: Potency index, ratio of curcumin IC50 to compound IC50 for ER/PR positive human MCF7 cells; format: functional
# MDA-MB-231 [4] = experiment: Potency index, ratio of curcumin IC50 to compound IC50 for human MDA-MB-231 cells; format: functional
# MDA-MB-231 [5] = experiment: Anti-tumor activity against human MDA-MB-231 cells xenografted in nu/nu mouse assessed as reduction in tumor size at 50 mg/kg, po administered once daily for 32 days measured every 4 days during compound dosing relative to control; format: functional; set-up: scale not given: the % may be the effect or the level left
# MDA-MB-231 [6] = experiment: Induction of apoptosis in human MDA-MB-231 cells; format: functional, cell-based
# [7] = Solubility of the compound in ethanol after 24 hrs by shake-flask method; format: physicochemical; conditions: ethanol
# MDA-MB-453 [8] = experiment: Potency index, ratio of curcumin IC50 to compound IC50 for HER2 positive human MDA-MB-453 cells; format: functional
# MDA-MB-231 [9] = experiment: Induction of autophagy in human MDA-MB-231 cells; format: functional, cell-based
# SK-BR-3 [10] = experiment: Potency index, ratio of curcumin IC50 to compound IC50 for HER2 positive human SKBR3 cells; format: functional
# Mus musculus [11] = experiment: Toxicity in nu/nu mouse assessed as change in serum creatinine level at 5 to 50 mg/kg, po administered once daily for 32 days measured post last dose; format: organism-based; conditions: in vivo, 768 h
# Hs-578T [12] = experiment: Potency index, ratio of curcumin IC50 to compound IC50 for human Hs578T cells; format: functional
# MDA-MB-231 [13] = experiment: Cell cycle arrest in human MDA-MB-231 cells assessed as increase in G2/M population by propidium iodide staining based flow cytometry; format: functional
# MCF7 [14] = experiment: Antiproliferative activity against ER/PR positive human MCF7 cells after 24 hrs by MTT assay; format: functional, cell-based; conditions: MCF7, 24 h
# Mus musculus [15] = experiment: Toxicity in nu/nu mouse assessed as change in blood glucose level at 5 to 50 mg/kg, po administered once daily for 32 days measured post last dose; format: organism-based; conditions: in vivo, 768 h
# MDA-MB-231 [16] = experiment: Anti-tumor activity against human MDA-MB-231 cells xenografted in nu/nu mouse assessed as reduction in tumor weight at 50 mg/kg, po administered once daily for 32 days in presence of doxorubicin; format: functional; set-up: scale not given: the % may be the effect or the level left
# Mus musculus [17] = experiment: Toxicity in nu/nu mouse assessed as effect on food consumption at 5 to 50 mg/kg, po administered once daily for 32 days measured during compound dosing; format: organism-based; conditions: in vivo, 768 h
# BT-474 [18] = experiment: Antiproliferative activity against HER2 positive human BT474 cells after 24 hrs by MTT assay; format: functional, cell-based; conditions: BT-474, 24 h
# Hs-578T [19] = experiment: Antiproliferative activity against human Hs578T cells after 24 hrs by MTT assay; format: functional, cell-based
# Mus musculus [20] = experiment: Toxicity in nu/nu mouse assessed as change in blood urea nitrogen level at 5 to 50 mg/kg, po administered once daily for 32 days measured post last dose; format: organism-based; conditions: in vivo, 768 h
# Mus musculus [21] = experiment: Toxicity in nu/nu mouse assessed as behavioral changes at 50 mg/kg, po administered once daily for 32 days in presence of doxorubicin; format: organism-based; conditions: in vivo, 768 h
# PC-3 = experiment: Antiproliferative activity against human PC3 cells up to 72 hrs by MTT assay; format: functional, cell-based; conditions: PC-3, 72 h
# HCT-116 = experiment: Antiproliferative activity against human HCT116 cells up to 72 hrs by MTT assay; format: functional, cell-based; conditions: HCT-116, 72 h
# Mus musculus [22] = experiment: Toxicity in nu/nu mouse assessed as behavioral changes at 5 to 50 mg/kg, po administered once daily for 32 days measured during compound dosing; format: organism-based; conditions: in vivo, 768 h
# MDA-MB-231 [23] = experiment: Anti-tumor activity against human MDA-MB-231 cells xenografted in nu/nu mouse assessed as reduction in tumor weight at 50 mg/kg, po administered once daily for 32 days; format: functional; set-up: scale not given: the % may be the effect or the level left
# MDA-MB-231 [24] = experiment: Antiproliferative activity against human MDA-MB-231 cells at 1 to 3 uM in presence of doxorubicin by MTT assay; format: functional, cell-based
# BT-474 [25] = experiment: Potency index, ratio of curcumin IC50 to compound IC50 for HER2 positive human BT474 cells; format: functional
# Mus musculus [26] = experiment: Toxicity in nu/nu mouse assessed as changes in body weight at 5 to 50 mg/kg, po administered once daily for 32 days measured every 4 days during compound dosing; format: organism-based; conditions: in vivo
# Mus musculus [27] = experiment: Acute-toxicity in nu/nu mouse assessed as changes in body weight at 500 mg/kg, po administered once daily for 5 days measured for 21 days; format: organism-based; conditions: in vivo, 504 h
# MDA-MB-231 [28] = experiment: Effect on heme oxygenase-1 expression in human MDA-MB-231 cells by microarray analysis; format: functional, cell-based
# MDA-MB-468 [29] = experiment: Potency index, ratio of curcumin IC50 to compound IC50 for doxorubicin-resistant human MDA-MB-468 cells; format: functional
# Mus musculus [30] = experiment: Toxicity in nu/nu mouse assessed as change in blood uric acid level at 5 to 50 mg/kg, po administered once daily for 32 days measured post last dose; format: organism-based; conditions: in vivo, 768 h
# MDA-MB-468 [31] = experiment: Antiproliferative activity against human MDA-MB-468 cells after 24 hrs by MTT assay; format: functional, cell-based; conditions: MDA-MB-468, 24 h
# Mus musculus [32] = experiment: Acute-toxicity in nu/nu mouse assessed as behavioral changes at 500 mg/kg, po administered once daily for 5 days measured for 21 days; format: organism-based; conditions: in vivo, 504 h
# Mus musculus [33] = experiment: Toxicity in nu/nu mouse assessed as change in total protein level at 5 to 50 mg/kg, po administered once daily for 32 days measured post last dose; format: organism-based; conditions: in vivo, 768 h
# MDA-MB-231 [34] = experiment: Potency index, ratio of test compound to curcumin for anti-tumor activity against human MDA-MB-231 cells xenografted in nu/nu mouse; format: functional
# [35] = Solubility of the compound in water after 24 hrs by shake-flask method; format: physicochemical
# MDA-MB-157 [36] = experiment: Antiproliferative activity against human MDA-MB-157 cells after 24 hrs by MTT assay; format: functional, cell-based; conditions: MDA-MB-157, 24 h
# [37] = Stability of the compound in culture media measured after 72 hrs in presence of curcumin by HPLC method
# Mus musculus [38] = experiment: Toxicity in nu/nu mouse assessed as change in body weight at 50 mg/kg, po administered once daily for 32 days in presence of doxorubicin; format: organism-based; conditions: in vivo, 768 h
# MDA-MB-468 [39] = experiment: Antiproliferative activity against doxorubicin-resistant human MDA-MB-468 cells after 24 hrs by MTT assay; format: functional, cell-based; conditions: MDA-MB-468, 24 h
# MDA-MB-453 [40] = experiment: Antiproliferative activity against HER2 positive human MDA-MB-453 cells after 24 hrs by MTT assay; format: functional, cell-based; conditions: MDA-MB-453, 24 h
# T47D [41] = experiment: Potency index, ratio of curcumin IC50 to compound IC50 for ER/PR positive human T47D cells; format: functional
# SK-BR-3 [42] = experiment: Antiproliferative activity against HER2 positive human SKBR3 cells after 24 hrs by MTT assay; format: functional, cell-based; conditions: SK-BR-3, 24 h
# Mus musculus [43] = experiment: Toxicity in nu/nu mouse assessed as change in serum albumin level at 5 to 50 mg/kg, po administered once daily for 32 days measured post last dose; format: organism-based; conditions: in vivo, 768 h
# MDA-MB-157 [44] = experiment: Potency index, ratio of curcumin IC50 to compound IC50 for human MDA-MB-157 cells; format: functional
# MDA-MB-468 [45] = experiment: Potency index, ratio of curcumin IC50 to compound IC50 for human MDA-MB-468 cells; format: functional
# T47D [46] = experiment: Antiproliferative activity against ER/PR positive human T47D cells after 24 hrs by MTT assay; format: functional, cell-based
structure (smiles),measurement,setting,value
COc1cc(/C=C/C(=O)/C=C(O)/C=C/c2ccc(OC(=O)C(C)(CO)CO)c(OC)c2)ccc1OC(=O)C(C)(CO)CO,Activity,Mus musculus [1],Non-Toxic
same,IC50,MDA-MB-231 [2],2.67 µM
same,Ratio IC50,MCF7 [3],2.5 - 8.6
same,Ratio IC50,MDA-MB-231 [4],6.1
same,Activity,MDA-MB-231 [5],60%
same,Activity,MDA-MB-231 [6],Active
same,solubility thermodynamic at 24 h,[7],13800 µg/mL
same,Ratio IC50,MDA-MB-453 [8],2.5 - 8.6
same,Activity,MDA-MB-231 [9],Active
same,Ratio IC50,SK-BR-3 [10],2.5 - 8.6
same,Activity,Mus musculus [11],Non-Toxic
same,Ratio IC50,Hs-578T [12],3.4 - 7.4
same,Activity,MDA-MB-231 [13],Active
same,IC50,MCF7 [14],6.13 µM
same,Activity,Mus musculus [15],Non-Toxic
same,Activity,MDA-MB-231 [16],80%
same,Activity,Mus musculus [17],Non-Toxic
same,IC50,BT-474 [18],6.15 µM
same,IC50,Hs-578T [19],7.96 µM
same,Activity,Mus musculus [20],Non-Toxic
same,Activity,Mus musculus [21],Non-Toxic
same,IC50,PC-3,3.9 µM
same,IC50,HCT-116,3.91 µM
same,Activity,Mus musculus [22],Non-Toxic
same,Activity,MDA-MB-231 [23],60%
same,Activity,MDA-MB-231 [24],Active
same,Ratio IC50,BT-474 [25],2.5 - 8.6
same,Activity,Mus musculus [26],Non-Toxic
same,Activity,Mus musculus [27],Non-Toxic
same,Activity,MDA-MB-231 [28],Active
same,Ratio IC50,MDA-MB-468 [29],10
same,Activity,Mus musculus [30],Non-Toxic
same,IC50,MDA-MB-468 [31],6.13 µM
same,Activity,Mus musculus [32],Non-Toxic
same,Activity,Mus musculus [33],Non-Toxic
same,Ratio,MDA-MB-231 [34],10
same,solubility thermodynamic at 24 h,[35],21.1 µg/mL
same,IC50,MDA-MB-157 [36],9.23 µM
same,Stability,[37],Stable
same,Activity,Mus musculus [38],Non-Toxic
same,IC50,MDA-MB-468 [39],6.52 µM
same,IC50,MDA-MB-453 [40],3.97 µM
same,Ratio IC50,T47D [41],2.5 - 8.6
same,IC50,SK-BR-3 [42],6.39 µM
same,Activity,Mus musculus [43],Non-Toxic
same,Ratio IC50,MDA-MB-157 [44],3.4 - 7.4
same,Ratio IC50,MDA-MB-468 [45],3.4 - 7.4
same,IC50,T47D [46],19.3 µM
